Measured values as given in PMC7935272 (PLoS Pathogens, 2021).
Like-named read-outs stand apart in the source and are kept apart here.

Assays:
[1] = system: MeV; experiment: Cell-based anti-MeV assays of earlier work
[2] = system: MeV; conditions: cited from earlier work; for IC50: Figure 7A source data; for EC50: experimental activity, read-out: EC50
[3] = cited from earlier work
[4] = −log10(EC50) of literature EC50

Structure (SMILES)	IC50 ([1]; Figure 7A source data) [µM]	IC50 [1, 4] [µM]	IC50 [2] [µM]	EC50 [2] [µM]	CC50 [3] [µM]
Cn1nc(C(F)(F)F)cc1C(O)Cc1ccc(S(=O)(=O)N2CCCC2)cc1 (stereo not drawn) [MS-27, S(=O)(=O)(N1CCCC1)c1ccc(CC(O)c2n(C)nc(C(F)(F)F)c2)cc1]	41	41	41	41	> 300
Cn1nc(C(F)(F)F)cc1C(=O)Nc1ccc(S(=O)(=O)c2ccccc2)cc1 [3a, S(=O)(=O)(c1ccc(NC(=O)c2n(C)nc(C(F)(F)F)c2)cc1)c1ccccc1]	0.09	0.0902	0.09	0.09	> 100
Cn1nc(C(F)(F)F)cc1C(=O)Nc1ccc(S(=O)(=O)N2CCCC[C@H]2CCO)cc1 [2k, S(=O)(=O)(N1[C@H](CCO)CCCC1)c1ccc(NC(=O)c2n(C)nc(C(F)(F)F)c2)cc1]		0.1		0.1	> 100
Cn1nc(C(F)(F)F)cc1C(=O)Nc1ccc(S(=O)(=O)N2CCCCC2)cc1 [AS-136a, S(=O)(=O)(N1CCCCC1)c1ccc(NC(=O)c2n(C)nc(C(F)(F)F)c2)cc1]	0.014	0.014	0.014	0.014	> 300
Cn1nc(C(F)(F)F)cc1C(=O)Nc1ccc(S(=O)(=O)c2ccccc2O)cc1 [3c, S(=O)(=O)(c1c(O)cccc1)c1ccc(NC(=O)c2n(C)nc(C(F)(F)F)c2)cc1]	4.5	4.51	4.5	4.5	75
CCCN(CCC)S(=O)(=O)c1ccc(NC(=O)c2cc(C(F)(F)F)cn2C)cc1 [15p, S(=O)(=O)(N(CCC)CCC)c1ccc(NC(=O)c2n(C)cc(C(F)(F)F)c2)cc1]	0.19	0.19	0.19	0.19	> 300
CCN(CC)S(=O)(=O)c1ccc(NC(=O)c2cc(C(F)(F)F)cn2C)cc1 [15n, S(=O)(=O)(N(CC)CC)c1ccc(NC(=O)c2n(C)cc(C(F)(F)F)c2)cc1]	0.019	0.019	0.0189	0.018	> 300
Cn1cc(C(F)(F)F)cc1C(=O)Nc1ccc(S(=O)(=O)N2CCC(C(F)(F)F)CC2)cc1 [15k, S(=O)(=O)(N1CCC(C(F)(F)F)CC1)c1ccc(NC(=O)c2n(C)cc(C(F)(F)F)c2)cc1]	0.02	0.02	0.02	0.02	159
Cn1nc(C(F)(F)F)cc1C(=O)Nc1ccc(S(=O)(=O)N2CCC[C@@H]2C(=O)O)cc1 [AS-105, S(=O)(=O)(N1[C@@H](C(=O)O)CCC1)c1ccc(NC(=O)c2n(C)nc(C(F)(F)F)c2)cc1]	23	23	23	23	> 300
COCOCC1CCCCN1S(=O)(=O)c1ccc(NC(=O)c2cc(C(F)(F)F)nn2C)cc1 (stereo not drawn) [1a, S(=O)(=O)(N1C(COCOC)CCCC1)c1ccc(NC(=O)c2n(C)nc(C(F)(F)F)c2)cc1]	1.5	1.5	1.5	1.5	> 100
CCC1CCCCN1S(=O)(=O)c1ccc(NC(=O)c2cc(C(F)(F)F)cn2C)cc1 (stereo not drawn) [15e, S(=O)(=O)(N1C(CC)CCCC1)c1ccc(NC(=O)c2n(C)cc(C(F)(F)F)c2)cc1]	0.087	0.0871	0.0869	0.086	> 300
Cn1cc(C(F)(F)F)cc1C(=O)Nc1ccc(S(=O)(=O)N2CCCCCCC2)cc1 [15g, S(=O)(=O)(N1CCCCCCC1)c1ccc(NC(=O)c2n(C)cc(C(F)(F)F)c2)cc1]	0.045	0.0451	0.045	0.045	> 300
Cn1nc(C(F)(F)F)cc1C(=O)Nc1ccc(S(=O)(=O)N2CCCCC2CO)cc1 (stereo not drawn) [28c, S(=O)(=O)(N1C(CO)CCCC1)c1ccc(NC(=O)c2n(C)nc(C(F)(F)F)c2)cc1]	0.85	0.851	0.85	0.85	
CN(C)S(=O)(=O)c1ccc(NC(=O)c2cc(C(F)(F)F)cn2C)cc1 [15m, S(=O)(=O)(N(C)C)c1ccc(NC(=O)c2n(C)cc(C(F)(F)F)c2)cc1]	6.3	6.31	6.3	6.3	> 300
C=CCN(CC=C)S(=O)(=O)c1ccc(NC(=O)c2cc(C(F)(F)F)cn2C)cc1 [15r, S(=O)(=O)(N(CC=C)CC=C)c1ccc(NC(=O)c2n(C)cc(C(F)(F)F)c2)cc1]	3.3	3.3	3.3	3.3	34
O=C(Nc1ccc(S(=O)(=O)N2CCCC2)cc1)c1nccn1-c1ccccc1C(F)(F)F [MS-12, S(=O)(=O)(N1CCCC1)c1ccc(NC(=O)c2n(-c3c(C(F)(F)F)cccc3)ccn2)cc1]	65	65	65	65	> 300
COc1ccccc1S(=O)(=O)c1ccc(NC(=O)c2cc(C(F)(F)F)nn2C)cc1 [3b, S(=O)(=O)(c1c(OC)cccc1)c1ccc(NC(=O)c2n(C)nc(C(F)(F)F)c2)cc1]	3.1	3.1	3.09	3	> 100
Cn1cc(C(F)(F)F)cc1C(=O)Nc1ccc(S(=O)(=O)N2CCC[C@@H]2C(=O)OC(=O)c2ccccc2)cc1 [15h, S(=O)(=O)(N1[C@@H](C(=O)OC(=O)c2ccccc2)CCC1)c1ccc(NC(=O)c2n(C)cc(C(F)(F)F)c2)cc1]	14	14	14	14	> 100
CCOC(=O)C=CC1CCCCN1S(=O)(=O)c1ccc(NC(=O)c2cc(C(F)(F)F)nn2C)cc1 (stereo not drawn) [2g, S(=O)(=O)(N1C(C=CC(=O)OCC)CCCC1)c1ccc(NC(=O)c2n(C)nc(C(F)(F)F)c2)cc1]	6.8	6.81	6.8	6.8	> 100
CC1CCCC(C)N1S(=O)(=O)c1ccc(NC(=O)c2cc(C(F)(F)F)cn2C)cc1 (stereo not drawn) [15d, S(=O)(=O)(N1C(C)CCCC1C)c1ccc(NC(=O)c2n(C)cc(C(F)(F)F)c2)cc1]	0.014	0.014	0.014	0.014	> 300
CC(=O)Oc1ccccc1S(=O)(=O)c1ccc(NC(=O)c2cc(C(F)(F)F)nn2C)cc1 [3d, S(=O)(=O)(c1c(OC(=O)C)cccc1)c1ccc(NC(=O)c2n(C)nc(C(F)(F)F)c2)cc1]	4.5	4.51	4.5	4.5	> 100
CC1CCCCN1S(=O)(=O)c1ccc(NC(=O)c2cc(C(F)(F)F)cn2C)cc1 (stereo not drawn) [15b, S(=O)(=O)(N1C(C)CCCC1)c1ccc(NC(=O)c2n(C)cc(C(F)(F)F)c2)cc1]	0.029	0.029	0.0289	0.028	> 300
Cn1nc(C(F)(F)F)cc1C(=O)Cc1ccc(S(=O)(=O)N2CCCC2)cc1 [MS-26, S(=O)(=O)(N1CCCC1)c1ccc(CC(=O)c2n(C)nc(C(F)(F)F)c2)cc1]	15.5	15.5	15.5	15.5	> 300
CC(C)N(C(C)C)S(=O)(=O)c1ccc(NC(=O)c2cc(C(F)(F)F)cn2C)cc1 [15o, S(=O)(=O)(N(C(C)C)C(C)C)c1ccc(NC(=O)c2n(C)cc(C(F)(F)F)c2)cc1]	0.53	0.531	0.529	0.52	> 300
Cn1cc(C(F)(F)F)cc1C(=O)Nc1ccc(S(=O)(=O)N2CCCCC2)cc1 [15a, S(=O)(=O)(N1CCCCC1)c1ccc(NC(=O)c2n(C)cc(C(F)(F)F)c2)cc1]	0.014	0.014	0.014	0.014	> 300
CC1CCN(S(=O)(=O)c2ccc(NC(=O)c3cc(C(F)(F)F)cn3C)cc2)CC1 [15c, S(=O)(=O)(N1CCC(C)CC1)c1ccc(NC(=O)c2n(C)cc(C(F)(F)F)c2)cc1]	0.035	0.0351	0.035	0.035	> 300
Cn1cc(C(F)(F)F)cc1C(=O)Nc1ccc(S(=O)(=O)N2CCCC2C(=O)O)cc1 (stereo not drawn) [15i, S(=O)(=O)(N1C(C(=O)O)CCC1)c1ccc(NC(=O)c2n(C)cc(C(F)(F)F)c2)cc1]	23	23	23	23	> 300
